Biological target: T1, Ba/F3 cell EGFR Exon20 ins NPH (Homo sapiens, UniProt P00533, INS773NPH)
T1 construct: expressed in transfected cells; host or cells: Ba/F3
Experiment: Ba/F3 cell proliferation suppression, EGFR Exon20 ins NPH
Type: cell-based
Conditions: GI50 class; Ba/F3 cell line with NPH inserted at Exon20 of EGFR; 72 hours
Procedure, shortened: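 72 h compound exposure, 0.3 nM–50 um (12 points, 3:1 dilution in DMSO); viability by CellTiter-Glo luminescence. Ba/F3 medium: RPMI-1640, 10% FBS, 5 ng/ml IL-3, 1 ug/ml puromycin for transduced cells. GI50 vs control, n=3.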

Row | SMILES | Ba/F3 (NPH) Activity
1 | C#Cc1cccc([C@H]2CCON2c2cc(Nc3cc(NC(=O)C=C)c(N4CCC(N5CCN(CC=C)CC5)CC4)cc3OC)ncn2)c1 [Example 216, N-(2-(4-(4-allylpiperazine-1-yl)piperidine-1-yl)-5-((6-((R)-3-(3-ethynylphenyl)isoxazolidine-2-yl)pyrimidine-4-yl)amino)-4-methoxyphenyl) acrylamide] | A (GI50 < 50 nM)
2 | C=CC(=O)Nc1cc(Nc2cc(N3OCC[C@@H]3c3ccc(F)cc3F)ncn2)c(OC)cc1N1CCN(CC2CC2)CC1 [compound 380, N-(2-(4-(cyclopropylmethyl)piperazine-1-yl)-5-((6-((R)-3-(2,4-difluorophenyl)isoxazolidine-2-yl)pyrimidine-4-yl)amino)-4-methoxyphenyl) acrylamide] | A (GI50 < 50 nM)
3 | C=CC(=O)Nc1cc(Nc2cc(N3OCC[C@H]3c3c(F)cccc3F)ncn2)c(OC)cc1N1CCC(N2CC[C@H](N(C)C)C2)CC1 [compound 315, N-(5-((6-((S)-3-(2,6-difluorophenyl)isoxazolidine-2-yl)pyrimidine-4-yl)amino)-2-(4-((S)-3-(dimethylamino)pyrolidine-1-yl)piperidine-1-yl)-4-methoxyphenyl) acrylamide] | C (500 nM ≤ GI50 < 5000 nM)
4 | COc1cc(OCCC(C)(C)OC)c(NC(=O)/C=C/CN(C)C)cc1Nc1cc(N2OCC[C@@H]2c2cc(F)cc(F)c2)ncn1 [compound 496, N-(5-((6-((R)-3-(3,5-difluorophenyl)isoxazolidine-2-yl)pyrimidine-4-yl)amino)-4-methoxy-2-(3-methoxy-3-methylbutoxy)phenyl)-(E)-4-(dimethylamino) but-2-enamide] | C (500 nM ≤ GI50 < 5000 nM)
5 | C=CC(=O)Nc1cc(Nc2cc(N3OCC[C@H]3c3c(F)cccc3F)ncn2)c(OC)cc1N(C)CCN(C)C [compound 306, N-(5-((6-((S)-3-(2,6-difluorophenyl)isoxazolidine-2-yl)pyrimidine-4-yl)amino)-2-((2-(dimethylamino)ethyl)(methyl)amino)-4-methoxyphenyl) acrylamide] | B (50 nM ≤ GI50 < 500 nM)
6 | C=CC(=O)Nc1cc(Nc2cc(N3OCC[C@@H]3c3cccc(Cl)c3Cl)ncn2)c(OC)cc1-n1cnc(C)c1 [compound 527, N-(5-((6-((R)-3-(2,3-dichlorophenyl)isoxazolidine-2-yl)pyrimidine-4-yl)amino)-4-methoxy-2-(4-methyl-1H-imidazole-1-yl)phenyl)acrylamide] | A (GI50 < 50 nM)
7 | C=CC(=O)Nc1cc(Nc2cc(N3OCC[C@@H]3c3ccc(F)c(F)c3)ncn2)c(OC)cc1N1CCC(N2C[C@H]3C[C@@H]2CO3)CC1 [compound 498, N-(2-(4-((1R,4R)-2-oxa-5-azabicyclo[2.2.1]heptane-5-yl)piperidine-1-yl)-5-((6-((R)-3-(3,4-difluorophenyl)isoxazolidine-2-yl)pyrimidine-4-yl)amino)-4-methoxyphenyl) acrylamide] | A (GI50 < 50 nM)
8 | C=CC(=O)Nc1cc(Nc2cc(N3OCC[C@@H]3c3ccc(C)nc3)ncn2)c(OC)cc1N1CCC(N2CCN(C(C)C)CC2)CC1 [Example 230, N-(2-(4-(4-isopropylpiperazine-1-yl)piperidine-1-yl)-4-methoxy-5-((6-((R)-3-(6-methylpyridine-3-yl)isoxazolidine-2-yl)pyrimidine-4-yl)amino)phenyl)acrylamide] | B (50 nM ≤ GI50 < 500 nM)
9 | C=CC(=O)Nc1cc(Nc2cc(N3OCC[C@@H]3c3cccc(C(F)(F)F)c3)ncn2)c(OC)cc1N1CC[C@@H](N(C)C)C1 [compound 505, N-(2-((R)-3-(dimethylamino)pyrolidine-1-yl)-4-methoxy-5-((6-((R)-3-(3-(trifluoromethyl)phenyl)isoxazolidine-2-yl)pyrimidine-4-yl)amino)phenyl)acrylamide] | A (GI50 < 50 nM)
10 | C=CC(=O)Nc1cc(Nc2cc(N3OCC[C@@H]3c3ccc(F)c(Cl)c3)ncn2)c(OC)cc1N1C[C@H]2CCN(C)[C@H]2C1 [compound 317, N-(5-((6-((R)-3-(3-chloro-4-fluorophenyl)isoxazolidine-2-yl)pyrimidine-4-yl)amino)-4-methoxy-2-((3aR, 6aR)-1-methylhexahydropyrrolo [3,4-b]pyrrole-5(1H)-yl)phenyl)acrylamide] | A (GI50 < 50 nM)
11 | C=CC(=O)Nc1cc(Nc2cc(N3OCC[C@@H]3c3cccc(Cl)c3)ncn2)c(OC)cc1N1CCC(N2CCN(C)CC2)CC1 [compound 416] | A (GI50 < 50 nM)
12 | C=CC(=O)Nc1cc(Nc2cc(N3OCC[C@@H]3c3cccc4ccccc34)ncn2)c(OC)cc1N1CCN(C2COC2)CC1 [compound 439, N-(4-methoxy-5-((6-((R)-3-(naphthalene-1-yl)isoxazolidine-2-yl)pyrimidine-4-yl)amino)-2-(4-(oxetane-3-yl)piperazine-1-yl)phenyl) acrylamide] | A (GI50 < 50 nM)
13 | C=CC(=O)Nc1cc(Nc2cc(N3OCC[C@@H]3c3cc(F)cc(F)c3)ncn2)c(OC)cc1N1CCC(N2CCN(C3CC3)[C@@H](C)C2)CC1 [Example 110, N-(2-(4-((S)-4-cyclopropyl-3-methylpiperazine-1-yl)piperidine-1-yl)-5-((6-((R)-3-(3,5-difluorophenyl)isoxazolidine-2-yl)pyrimidine-4-yl)amino)-4-methoxyphenyl) acrylamide] | A (GI50 < 50 nM)

The next lines start with the values.

Row | Ba/F3 (NPH) Activity | SMILES
14 | A (GI50 < 50 nM) | C=CC(=O)Nc1cc(Nc2cc(N3OCC[C@@H]3c3cc(F)cc(F)c3)ncn2)c(OC)cc1N1CCC(N2CCC3(CC2)CC3)CC1 [compound 700, N-(2-(4-(6-azaspiro[2.5]octan-6-yl)piperidine-1-yl)-5-((6-((R)-3-(3,5-difluorophenyl)isoxazolidine-2-yl)pyrimidine-4-yl)amino)-4-methoxyphenyl) acrylamide]
15 | A (GI50 < 50 nM) | C=CC(=O)Nc1cc(Nc2cc(N3OCC[C@@H]3c3cc(F)cc(F)c3)ncn2)c(OC)cc1N1CCN(C)[C@@H](C)C1 [compound 916, N-(5-((6-((R)-3-(3,5-difluorophenyl)isoxazolidine-2-yl)pyrimidine-4-yl)amino)-2-((S)-3,4-dimethylpiperazine-1-yl)-4-methoxyphenyl) acrylamide]
16 | A (GI50 < 50 nM) | C=CC(=O)Nc1cc(Nc2cc(N3OCC[C@@H]3c3ccc(F)c(F)c3F)ncn2)c(OC)cc1N1CCC(N2CCN(C)CC2)CC1 [compound 620, N-(4-methoxy-2-(4-(4-methylpiperazine-1-yl)piperidine-1-yl)-5-((6-((R)-3-(2,3,4-trifluorophenyl)isoxazolidine-2-yl)pyrimidine-4-yl)amino)phenyl)acrylamide]
17 | A (GI50 < 50 nM) | C=CC(=O)Nc1cc(Nc2cc(N3OCC[C@@H]3c3ccccc3)ncn2)c(OC)cc1N1CCC(N2C[C@@H]3C[C@H]2CN3CC)CC1 [compound 737, N-(2-(4-((1S,4S)-5-ethyl-2,5-diazabicyclo [2.2.1]heptane-2-yl)piperidine-1-yl)-4-methoxy-5-((6-((R)-3-phenylisoxazolidine-2-yl)pyrimidine-4-yl)amino)phenyl) acrylamide]
18 | A (GI50 < 50 nM) | C=CC(=O)Nc1cc(Nc2cc(N3OCC[C@@H]3c3cccc(F)c3F)ncn2)c(OC)cc1N1CCC(N2CCOCC2)CC1 [compound 920, N-(5-((6-((R)-3-(2,3-difluorophenyl)isoxazolidine-2-yl)pyrimidine-4-yl)amino)-4-methoxy-2-(4-morpholinopiperidine-1-yl)phenyl)acrylamide]
19 | B (50 nM ≤ GI50 < 500 nM) | C=CC(=O)Nc1cc(Nc2cc(N3OCC[C@@H]3Cc3cccc(N(C)C)c3)ncn2)c(OC)cc1N1CCC(N2CCN(C3CC3)[C@H](C)C2)CC1 [compound 1046, N-(2-(4-((R)-4-cyclopropyl-3-methylpiperazine-1-yl)piperidine-1-yl)-5-((6-((S)-3-(3-(dimethylamino)benzyl)isoxazolidine-2-yl)pyrimidine-4-yl)amino)-4-methoxyphenyl) acrylamide]
20 | B (50 nM ≤ GI50 < 500 nM) | C=CC(=O)Nc1cc(Nc2cc(N3OCC[C@@H]3c3ccc(F)c(F)c3)ncn2)c(OC)cc1N1C2CC1CN(C)C2 [compound 542, N-(5-((6-((R)-3-(3,4-difluorophenyl)isoxazolidine-2-yl)pyrimidine-4-yl)amino)-4-methoxy-2-(3-methyl-3,6-diazabicyclo [3.1.1]heptane-6-yl)phenyl)acrylamide]
21 | B (50 nM ≤ GI50 < 500 nM) | C=CC(=O)Nc1cc(Nc2cc(N3OCC[C@@H]3c3ccc(Cl)c(Cl)c3)ncn2)c(OC)cc1N1CCN(CCN(C)C)CC1 [compound 686, N-(5-((6-((R)-3-(3,4-dichlorophenyl)isoxazolidine-2-yl)pyrimidine-4-yl)amino)-2-(4-(2-(dimethylamino)ethyl)piperazine-1-yl)-4-methoxyphenyl) acrylamide]
22 | A (GI50 < 50 nM) | C=CC(=O)Nc1cc(Nc2cc(N3OCC[C@@H]3Cc3cccc(F)c3)ncn2)c(OC)cc1N1CCC(N2CCN(C3CC3)[C@@H](C)C2)CC1 [compound 993, N-(2-(4-((S)-4-cyclopropyl-3-methylpiperazine-1-yl)piperidine-1-yl)-5-((6-((S)-3-(3-fluorobenzyl)isoxazolidine-2-yl)pyrimidine-4-yl)amino)-4-methoxyphenyl) acrylamide]
23 | A (GI50 < 50 nM) | C=CC(=O)Nc1cc(Nc2cc(N3OCC[C@@H]3c3cccc(C(F)(F)F)c3)ncn2)c(OC)cc1N1CCC(N2C[C@H]3C[C@@H]2CO3)CC1 [compound 943, N-(2-(4-((1R,4R)-2-oxa-5-azabicyclo [2.2.1]heptane-5-yl)piperidine-1-yl)-4-methoxy-5-((6-((R)-3-(3-(trifluoromethyl)phenyl)isoxazolidine-2-yl)pyrimidine-4-yl)amino)phenyl) acrylamide]
